The results in this text go back to article PMC5913645, “Methyl phenlactonoates are efficient strigolactone analogs with simple structure” (Journal of Experimental Botany, 2017).

One assay deals with T1, ShHTL7 (Striga hermonthica, UniProt A0A0M3PNA2).
T1 sequence (A0A0M3PNA2 1-271): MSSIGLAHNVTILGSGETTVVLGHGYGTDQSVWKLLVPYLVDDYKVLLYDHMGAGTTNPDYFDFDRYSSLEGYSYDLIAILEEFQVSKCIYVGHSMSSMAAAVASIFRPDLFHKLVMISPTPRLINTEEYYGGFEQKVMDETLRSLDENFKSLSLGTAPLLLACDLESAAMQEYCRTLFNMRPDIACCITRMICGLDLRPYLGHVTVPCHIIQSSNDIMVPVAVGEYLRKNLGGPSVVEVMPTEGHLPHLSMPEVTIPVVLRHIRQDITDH
Kind of assay: In vitro hydrolysis assay, ShHTL7. It counts as biochemical. The note with it: 10 µM substrate, 50 µg ml^−1 protein, 37 °C, HPLC. From the text: Striga hermonthica ShHTL7 cDNA was used, GenBank accession KR013127, kindly provided by Tsuyoshi Ota, The University of Tokyo, Japan. Arabidopsis D14 (AtD14) cDNA, GenBank accession AY097402, was synthesized and cloned into pUC57 (GenScript). ShHTL7 and OsD14 cDNAs were amplified by RT-PCR using the primers shown in Supplementary Table S2, digested with BamHI and XhoI, and ligated into BamHI/XhoI-digested pGEX-6P-1 expression vector (GE Healthcare). […] The plasmids were then transformed into E. coli BL21 (DE3) cells. The cells were grown in LB broth containing ampicillin ([…]), incubated at 37 °C until OD600 of 0.6 and induced with 0.1 mM isopropyl-β-D-thiogalactopyranoside at 16 °C for 16 h. Harvested cells were resuspended in lysis buffer: 50 mM Tris–HCl (pH 8.0), 200 mM NaCl, 0.5% Tween-20 and 2 mM dithiothreitol (DTT). After sonication on ice for 10 min, the lysate was centrifuged at 75 000 g for 30 min at 4 °C. Supernatant was allowed to bind to glutathione–sepharose beads (GE Healthcare) for 2 h at 4 °C, washed 3 times with buffer (50 mM Tris-HCl (pH 8.0), 200 mM NaCl, 2 mM DTT), and eluted by cleaving the GST moiety with PreScission™ Protease (GE Healthcare) at 4 °C overnight. Eluted protein was further purified by gel filtration using a HiLoad 16/60 Superdex200 prep grade column (GE Healthcare) on an AKTA prime system (GE Healthcare) in gel filtration buffer (10 mM HEPES pH 7.5, 50 mM KCl and 2 mM DTT). […] Purified protein was concentrated using an Amicon 10K filter unit (Merck Millipore) and stored at −80 °C until use. A similar expression and purification protocol was followed for OsD14 protein, except that OsD14 was eluted from glutathione resins using 0.2 mM reduced glutathione (Sigma-Aldrich) without cutting the GST tag.
The hydrolysis of GR24 and MPs by ShHTL7/OsD14 was performed in a total volume of 0.5 ml of phosphate-buffered saline containing 10 µM of substrate. Purified ShHTL7/OsD14 was added at a concentration of 50 µg ml^−1 and incubated for the indicated time at 37 °C. After adding 1-indanol (10 µl of a 2.5 mg ml^−1 solution in methanol), as internal standard, solutions were filtered and transferred to HPLC vials. […] The column was operated at 30 °C with a flow rate of 0.2 ml min^−1. Eluted compounds were detected using a diode array detector. Amounts of remaining substrates were determined by calculating corresponding peaks, in comparison with an internal standard.

Another assay has as its system Arabidopsis seedlings. The assay is described as follows: Arabidopsis primary root length. It counts as in vivo. To be noted: 1.0 μM. The protocol:
Sterilized Arabidopsis seeds were sown on half-strength MS (with 0.5% sucrose+1% agar, 0.5 g l^−1 MES, pH 5.7) plates supplemented with GR24 or MPs (at 1.0 μM). Plates were stored at 4 °C in darkness for 3 d and then vertically grown at 22 °C in a Percival incubator under long day condition (16 h at 22 °C/8 h at 16 °C day/night, 60% relative humidity, 60–70 μmol m^−2 s^−1 white light) for 8 d. For determining the effect on lateral root density and primary root length, at least 30 seedlings were measured using ImageJ software after scanning roots.

Consider `COC(=O)/C(=C/OC1C=C(C)C(=O)O1)c1ccc(Cl)cc1` (stereo not shown) [MP7], for which, at ShHTL7, the “hydrolysis rate by ShHTL7 (rank order)” value is “highest hydrolysis rates with MP1, followed by MP7, GR24, and finally MP3”. Also, in the assay on Arabidopsis seedlings, the “increase in primary root length” value is listed as “more efficient than GR24”.

As to `COC(=O)/C(=C/OC1C=C(C)C(=O)O1)c1ccccc1` (stereo not shown) [MP3, (E)-methyl 3-(4-methyl-5-oxo-2,5-dihydrofuran-2-yloxy)-2-phenylacrylate], the “hydrolysis rate by ShHTL7 (rank order)” value at ShHTL7 is “highest hydrolysis rates with MP1, followed by MP7, GR24, and finally MP3”. In addition, the “increase in primary root length” value with Arabidopsis seedlings was “weaker activity than GR24 and MP8”.

`COC(=O)/C(=C/OC1C=C(C)C(=O)O1)c1ccc([N+](=O)[O-])cc1` (stereo not shown) [MP1, (E)-methyl 3-(4-methyl-5-oxo-2,5-dihydrofuran-2-yloxy)-2-(4-nitrophenyl)acrylate]: the “hydrolysis rate by ShHTL7 (rank order)” value at ShHTL7 was “highest hydrolysis rates with MP1, followed by MP7, GR24, and finally MP3”. Moreover, in the assay on Arabidopsis seedlings, the “increase in primary root length” value is “most active compound”.

Consider `CC1=CC(OC=C2C(=O)OC3c4ccccc4CC23)OC1=O` (stereo not shown) [GR24, reference compound], for which, on ShHTL7, the “hydrolysis rate by ShHTL7 (rank order)” value was “highest hydrolysis rates with MP1, followed by MP7, GR24, and finally MP3”.
